Source: PubChem BioAssay (NCI)
Where “and” joins values, the source holds several entries; their conditions need not be identical. Identical values can stand only once.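 Where inhibition never reached the appropriate level, the endpoint shown equals the highest concentration tested. Otherwise, values were interpolated linearly from a five-concentration, 48-hour dose response in 96-well plates. Abbreviation: GI50, concentration required for 50% inhibition of growth. At the TGI there is no net growth.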

Columns and labels:
Test in all cases: NCI anticancer screen, dose series, 48 h; in the data active = GI50 below about 0.43 µM; inactive = the rest
786-0 renal = tested on: 786-0 renal
A549 NSCLC = tested on: A549 NSCLC
ACHN renal = tested on: ACHN renal
CAKI-1 renal = tested on: CAKI-1 renal
CCRF-CEM leukemia = tested on: CCRF-CEM leukemia
COLO 205 colon = tested on: COLO 205 colon
DMS 114 small cell lung = tested on: DMS 114 small cell lung
DMS 273 small cell lung = tested on: DMS 273 small cell lung
HCC-2998 colon = tested on: HCC-2998 colon
HL-60(TB) leukemia = tested on: HL-60(TB) leukemia
HOP-18 NSCLC = tested on: HOP-18 NSCLC
HOP-62 NSCLC = tested on: HOP-62 NSCLC
K-562 leukemia = tested on: K-562 leukemia
LOX IMVI melanoma = tested on: LOX IMVI melanoma
LXFL 529 NSCLC = tested on: LXFL 529 NSCLC
M19-MEL melanoma = tested on: M19-MEL melanoma
MALME-3M melanoma = tested on: MALME-3M melanoma
MOLT-4 leukemia = tested on: MOLT-4 leukemia
NCI-H23 lung = tested on: NCI-H23 lung
NCI-H460 lung = tested on: NCI-H460 lung
OVCAR-4 ovarian = tested on: OVCAR-4 ovarian
OVCAR-5 ovarian = tested on: OVCAR-5 ovarian
OVCAR-8 ovarian = tested on: OVCAR-8 ovarian
RPMI-8226 leukemia = tested on: RPMI-8226 leukemia
SF-268 CNS = tested on: SF-268 CNS
SF-295 CNS = tested on: SF-295 CNS
SK-MEL-28 melanoma = tested on: SK-MEL-28 melanoma
SK-OV-3 ovarian = tested on: SK-OV-3 ovarian
SN12C renal = tested on: SN12C renal
SNB-75 CNS = tested on: SNB-75 CNS
SW-620 colon = tested on: SW-620 colon
TK-10 renal = tested on: TK-10 renal
UO-31 renal = tested on: UO-31 renal
A498 renal = tested on: A498 renal
BT-549 breast = tested on: BT-549 breast
DU-145 prostate = tested on: DU-145 prostate
EKVX NSCLC = tested on: EKVX NSCLC
HCT-116 colon = tested on: HCT-116 colon
HCT-15 colon = tested on: HCT-15 colon
HOP-92 NSCLC = tested on: HOP-92 NSCLC
HS 578T breast = tested on: HS 578T breast
HT29 colon = tested on: HT29 colon
IGROV1 ovarian = tested on: IGROV1 ovarian
KM12 colon = tested on: KM12 colon
M14 melanoma = tested on: M14 melanoma
MCF7 breast = tested on: MCF7 breast
MDA-MB-231 breast = tested on: MDA-MB-231 breast
MDA-MB-435 = tested on: MDA-MB-435
MDA-N = tested on: MDA-N
NCI-H226 lung = tested on: NCI-H226 lung
NCI-H522 lung = tested on: NCI-H522 lung
NCI/ADR-RES ovarian = tested on: NCI/ADR-RES ovarian
OVCAR-3 ovarian = tested on: OVCAR-3 ovarian
PC-3 prostate = tested on: PC-3 prostate
RXF 393 renal = tested on: RXF 393 renal
SF-539 CNS = tested on: SF-539 CNS
SK-MEL-2 melanoma = tested on: SK-MEL-2 melanoma
SK-MEL-5 melanoma = tested on: SK-MEL-5 melanoma
SNB-19 CNS = tested on: SNB-19 CNS
SR leukemia = tested on: SR leukemia
T-47D breast = tested on: T-47D breast
U251 CNS = tested on: U251 CNS
UACC-257 melanoma = tested on: UACC-257 melanoma
UACC-62 melanoma = tested on: UACC-62 melanoma
DLD-1 colon = tested on: DLD-1 colon
KM20L2 colon = tested on: KM20L2 colon
XF 498 CNS = tested on: XF 498 CNS

COc1cc([C@@H]2c3cc4c(cc3[C@@H](OC(=O)c3ccccc3)C3COC(=O)[C@@H]32)OCO4)cc(OC)c1O (stereo partly drawn)
69 µM: TGI (M19-MEL melanoma)
33.5 µM: TGI (UO-31 renal)
84.5 µM: TGI (LOX IMVI melanoma)
45.5 µM: TGI (786-0 renal)
> 100 µM: TGI (CCRF-CEM leukemia) | TGI (DMS 273 small cell lung) | TGI (HCC-2998 colon) | TGI (HOP-18 NSCLC) | TGI (K-562 leukemia) | TGI (LXFL 529 NSCLC) | TGI (OVCAR-4 ovarian) | TGI (OVCAR-5 ovarian) | TGI (OVCAR-8 ovarian) | TGI (SF-268 CNS) | TGI (SF-295 CNS) | TGI (SK-MEL-28 melanoma) | TGI (SK-OV-3 ovarian) | TGI (SW-620 colon) | TGI (TK-10 renal)
0.0229 µM: TGI (DMS 114 small cell lung)
28.7 µM: TGI (HOP-62 NSCLC)
15.4 µM: TGI (HL-60(TB) leukemia)
36.8 µM: TGI (SNB-75 CNS)
20.9 µM: TGI (NCI-H460 lung)
35.6 µM: TGI (A549 NSCLC)
18.4 µM: TGI (ACHN renal)
41.4 µM: TGI (MOLT-4 leukemia)
0.0642 µM: TGI (NCI-H23 lung)
44 µM: TGI (RPMI-8226 leukemia)
79.2 µM: TGI (CAKI-1 renal)
0.963 µM: TGI (COLO 205 colon)
29.9 µM: TGI (MALME-3M melanoma)
26.9 µM: TGI (SN12C renal)

c1ccc(P(CCP(CCP(c2ccccc2)c2ccccc2)c2ccccc2)CCP(c2ccccc2)c2ccccc2)cc1 (stereo not drawn)
inactive: GI50 (ACHN renal) > 10 µM | GI50 (CAKI-1 renal) > 10 µM and 3 µM | GI50 (COLO 205 colon) > 10 µM and 2.08 µM | GI50 (EKVX NSCLC) > 10 µM | GI50 (HOP-92 NSCLC) > 10 µM and 2.25 µM | GI50 (KM12 colon) > 10 µM and 1.39 µM | GI50 (M14 melanoma) > 10 µM and 4.18 µM | GI50 (MDA-MB-231 breast) > 10 µM and 3.58 µM | GI50 (MDA-MB-435) > 10 µM and 3.67 µM | GI50 (MDA-N) > 10 µM and 3.35 µM | GI50 (OVCAR-3 ovarian) > 10 µM | GI50 (OVCAR-8 ovarian) > 10 µM and 1.87 µM | GI50 (PC-3 prostate) > 10 µM | GI50 (SF-268 CNS) > 10 µM and 3.71 µM | GI50 (SF-295 CNS) > 10 µM and 3.56 µM | GI50 (SK-MEL-28 melanoma) > 10 µM and 2.01 µM | GI50 (SK-MEL-5 melanoma) > 10 µM and 4.12 µM | GI50 (SN12C renal) > 10 µM and 3.94 µM | GI50 (SNB-19 CNS) > 10 µM | GI50 (SNB-75 CNS) 4.55 µM and 1.91 µM | GI50 (U251 CNS) > 10 µM and 1.04 µM
3.12 µM: TGI (NCI-H460 lung)
2.84 µM: TGI (LOX IMVI melanoma)
3.04 µM: TGI (MCF7 breast)
3.21 µM: TGI (786-0 renal)
5.13 µM: TGI (NCI-H522 lung)
5.85 µM: TGI (MOLT-4 leukemia)
3.69 µM: TGI (HL-60(TB) leukemia)
4.79 µM: TGI (T-47D breast)
> 10 µM and 9.84 µM: TGI (SF-539 CNS)
> 10 µM: TGI (A498 renal) | TGI (A549 NSCLC) | TGI (ACHN renal) | TGI (BT-549 breast) | TGI (CAKI-1 renal) | TGI (CCRF-CEM leukemia) | TGI (COLO 205 colon) | TGI (DU-145 prostate) | TGI (EKVX NSCLC) | TGI (HCT-116 colon) | TGI (HCT-15 colon) | TGI (HOP-62 NSCLC) | TGI (HOP-92 NSCLC) | TGI (HS 578T breast) | TGI (HT29 colon) | TGI (IGROV1 ovarian) | TGI (K-562 leukemia) | TGI (KM12 colon) | TGI (M14 melanoma) | TGI (MALME-3M melanoma) | TGI (MDA-MB-231 breast) | TGI (MDA-MB-435) | TGI (MDA-N) | TGI (NCI-H226 lung) | TGI (NCI-H23 lung) | TGI (NCI/ADR-RES ovarian) | TGI (OVCAR-3 ovarian) | TGI (OVCAR-4 ovarian) | TGI (OVCAR-5 ovarian) | TGI (OVCAR-8 ovarian) | TGI (PC-3 prostate) | TGI (RPMI-8226 leukemia) | TGI (RXF 393 renal) | TGI (SF-268 CNS) | TGI (SF-295 CNS) | TGI (SK-MEL-2 melanoma) | TGI (SK-MEL-28 melanoma) | TGI (SK-MEL-5 melanoma) | TGI (SK-OV-3 ovarian) | TGI (SN12C renal) | TGI (SNB-19 CNS) | TGI (SNB-75 CNS) | TGI (SR leukemia) | TGI (SW-620 colon) | TGI (TK-10 renal) | TGI (U251 CNS) | TGI (UACC-257 melanoma) | TGI (UACC-62 melanoma) | TGI (UO-31 renal)
4.52 µM: TGI (HCC-2998 colon)

COc1ccc(-c2cc(=O)c3cc4c(cc3[nH]2)OCO4)cc1
> 100 µM: TGI (786-0 renal) | TGI (A498 renal) | TGI (A549 NSCLC) | TGI (ACHN renal) | TGI (CCRF-CEM leukemia) | TGI (COLO 205 colon) | TGI (DLD-1 colon) | TGI (DMS 114 small cell lung) | TGI (DMS 273 small cell lung) | TGI (HCC-2998 colon) | TGI (HCT-116 colon) | TGI (HCT-15 colon) | TGI (HL-60(TB) leukemia) | TGI (HOP-62 NSCLC) | TGI (HT29 colon) | TGI (IGROV1 ovarian) | TGI (K-562 leukemia) | TGI (KM20L2 colon) | TGI (LOX IMVI melanoma) | TGI (LXFL 529 NSCLC) | TGI (M14 melanoma) | TGI (M19-MEL melanoma) | TGI (MALME-3M melanoma) | TGI (MOLT-4 leukemia) | TGI (NCI-H226 lung) | TGI (NCI-H23 lung) | TGI (NCI-H460 lung) | TGI (OVCAR-3 ovarian) | TGI (OVCAR-4 ovarian) | TGI (OVCAR-8 ovarian) | TGI (RPMI-8226 leukemia) | TGI (RXF 393 renal) | TGI (SF-268 CNS) | TGI (SF-295 CNS) | TGI (SF-539 CNS) | TGI (SK-MEL-2 melanoma) | TGI (SK-MEL-28 melanoma) | TGI (SK-MEL-5 melanoma) | TGI (SN12C renal) | TGI (SNB-19 CNS) | TGI (SNB-75 CNS) | TGI (SR leukemia) | TGI (SW-620 colon) | TGI (TK-10 renal) | TGI (U251 CNS) | TGI (UACC-257 melanoma) | TGI (UACC-62 melanoma) | TGI (UO-31 renal) | TGI (XF 498 CNS)
41.3 µM: TGI (EKVX NSCLC)
